What is called IC50 is the concentration that inhibits the measured activity by half.

Assay [1] has as its target T1, α1β2γ2 GABAA receptors (Homo sapiens, UniProt P14867+P47870).
T1 construct: expressed in transfected cells
As to the kind of experiment: Patch clamp electrophysiology (QPatch) of recombinant α1β2γ2 GABAA receptors in LTK cells. The format is cell-based. Particulars: 10 μM test article, GABA EC20 = 2 μM, read-out: GABA (α1β2γ2) Qpatch in Ltk, % efficacy at 10 μM.

In assay [2] the target is [35S]-TBPS binding, rat brain cortical membranes. Description: Steroid inhibition of [35S]-TBPS binding. The note with it: 3 nM [35S]-TBPS, in the presence of 5 μM GABA. The method, then:
[35S]-Butylbicyclophosphorothionate (TBPS) binding assays using rat brain cortical membranes in the presence of 5 μM GABA has been described (Gee et al, J. Pharmacol. Exp. Ther. 1987, 241, 346-353; Hawkinson et al, Mol. Pharmacol. 1994, 46, 977-985; Lewin, A. H et al., Mol. Pharmacol. 1989, 35, 189-194).
Briefly, cortices are rapidly removed following decapitation of carbon dioxide-anesthetized Sprague-Dawley rats (200-250 g). The cortices are homogenized in 10 volumes of ice-cold 0.32 M sucrose using a glass/teflon homogenizer and centrifuged at 1500×g for 10 min at 4° C. The resultant supernatants are centrifuged at 10,000×g for 20 min at 4° C. to obtain the P2 pellets. The P2 pellets are resuspended in 200 mM NaCl/50 mM Na—K phosphate pH 7.4 buffer and centrifuged at 10,000×g for 10 min at 4° C. This washing procedure is repeated twice and the pellets are resuspended in 10 volumes of buffer. Aliquots (100 μL) of the membrane suspensions are incubated with 3 nM [^35S]-TBPS and 5 μL aliquots of test drug dissolved in dimethyl sulfoxide (DMSO) (final 0.5%) in the presence of 5 μM GABA. The incubation is brought to a final volume of 1.0 mL with buffer. Nonspecific binding is determined in the presence of 2 μM unlabeled TBPS and ranged from 15 to 25%. […] Filter bound radioactivity is measured by liquid scintillation spectrometry. […]

Assay [3] addresses T2, α4β3δ GABAA receptors (Homo sapiens, UniProt P28472+P48169).
T2 construct: expressed in transfected cells; host or cells: CHO cells (transient transfection, Lipofectamine)
Description: Manual patch clamp electrophysiology of recombinant α4β3δ GABAA receptors in CHO cells. The format is cell-based. Particulars: 10 μM test article, GABA EC20 = 2 μM, read-out: GABA (α4β3δ) Manual patch in CHO, % efficacy at 10 μM.

T1 sequence (P14867 28-456): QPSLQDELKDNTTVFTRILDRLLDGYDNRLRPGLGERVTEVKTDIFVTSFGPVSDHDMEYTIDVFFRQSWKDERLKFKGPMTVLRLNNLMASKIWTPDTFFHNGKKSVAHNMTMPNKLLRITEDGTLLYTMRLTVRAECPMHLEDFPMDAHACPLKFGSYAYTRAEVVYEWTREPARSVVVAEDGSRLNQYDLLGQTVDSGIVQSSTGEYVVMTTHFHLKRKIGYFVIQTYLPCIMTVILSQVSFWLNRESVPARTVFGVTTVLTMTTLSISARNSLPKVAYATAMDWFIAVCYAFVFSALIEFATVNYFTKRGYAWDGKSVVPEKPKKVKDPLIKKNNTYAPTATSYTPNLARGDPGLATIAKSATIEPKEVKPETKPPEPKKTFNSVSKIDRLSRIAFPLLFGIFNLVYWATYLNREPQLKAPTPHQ
T1 sequence (P47870 25-512 limits assumed): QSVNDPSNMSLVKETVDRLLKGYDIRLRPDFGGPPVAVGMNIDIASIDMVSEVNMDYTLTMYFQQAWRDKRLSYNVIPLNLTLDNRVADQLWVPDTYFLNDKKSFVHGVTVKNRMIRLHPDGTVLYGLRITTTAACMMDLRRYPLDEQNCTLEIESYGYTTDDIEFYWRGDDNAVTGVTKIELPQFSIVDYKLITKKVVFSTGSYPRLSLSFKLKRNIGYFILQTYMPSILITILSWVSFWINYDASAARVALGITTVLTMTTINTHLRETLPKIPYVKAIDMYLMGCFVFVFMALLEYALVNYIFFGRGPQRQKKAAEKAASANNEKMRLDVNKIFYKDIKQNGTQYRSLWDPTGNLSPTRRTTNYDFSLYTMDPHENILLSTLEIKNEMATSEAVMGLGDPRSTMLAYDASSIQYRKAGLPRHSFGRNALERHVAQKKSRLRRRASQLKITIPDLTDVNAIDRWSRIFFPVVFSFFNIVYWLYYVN
T1 sequence (P18507 40-475 partner): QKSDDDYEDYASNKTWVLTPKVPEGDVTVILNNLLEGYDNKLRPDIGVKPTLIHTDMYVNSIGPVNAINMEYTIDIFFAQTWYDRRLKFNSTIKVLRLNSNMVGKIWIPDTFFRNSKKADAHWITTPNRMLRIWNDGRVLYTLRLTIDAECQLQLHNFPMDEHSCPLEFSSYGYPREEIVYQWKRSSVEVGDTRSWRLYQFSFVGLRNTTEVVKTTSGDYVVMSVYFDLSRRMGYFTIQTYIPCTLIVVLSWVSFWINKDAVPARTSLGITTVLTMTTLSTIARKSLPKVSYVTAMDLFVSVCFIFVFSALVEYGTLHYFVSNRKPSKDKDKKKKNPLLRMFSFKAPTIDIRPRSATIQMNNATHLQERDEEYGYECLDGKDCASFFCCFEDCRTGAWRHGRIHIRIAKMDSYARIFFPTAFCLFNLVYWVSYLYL
T2 sequence (P48169 36-554): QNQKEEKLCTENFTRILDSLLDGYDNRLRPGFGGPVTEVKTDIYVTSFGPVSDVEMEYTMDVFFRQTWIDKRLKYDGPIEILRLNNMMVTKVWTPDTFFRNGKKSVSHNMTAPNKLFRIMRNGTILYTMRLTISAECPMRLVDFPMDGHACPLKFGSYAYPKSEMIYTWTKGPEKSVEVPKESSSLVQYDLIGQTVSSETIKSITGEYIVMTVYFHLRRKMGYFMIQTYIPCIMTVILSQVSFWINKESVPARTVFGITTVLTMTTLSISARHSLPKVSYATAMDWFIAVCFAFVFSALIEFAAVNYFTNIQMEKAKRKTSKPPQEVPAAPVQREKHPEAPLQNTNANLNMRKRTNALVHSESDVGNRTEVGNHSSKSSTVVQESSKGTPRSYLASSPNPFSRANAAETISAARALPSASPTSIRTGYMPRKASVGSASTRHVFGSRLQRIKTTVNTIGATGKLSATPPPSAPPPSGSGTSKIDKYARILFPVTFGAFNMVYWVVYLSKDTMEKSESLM
T2 sequence (P28472 26-473): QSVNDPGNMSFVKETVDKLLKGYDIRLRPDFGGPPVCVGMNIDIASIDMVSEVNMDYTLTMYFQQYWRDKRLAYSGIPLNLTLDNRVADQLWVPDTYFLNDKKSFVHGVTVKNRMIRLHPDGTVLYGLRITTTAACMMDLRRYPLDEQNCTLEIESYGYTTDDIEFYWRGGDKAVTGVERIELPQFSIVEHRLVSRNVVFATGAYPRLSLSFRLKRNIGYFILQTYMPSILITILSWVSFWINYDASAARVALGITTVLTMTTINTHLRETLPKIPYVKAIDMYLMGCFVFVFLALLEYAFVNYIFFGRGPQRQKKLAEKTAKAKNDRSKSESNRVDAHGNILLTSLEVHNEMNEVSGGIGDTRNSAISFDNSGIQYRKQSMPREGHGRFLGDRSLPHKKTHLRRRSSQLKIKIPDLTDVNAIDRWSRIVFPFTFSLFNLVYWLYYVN
T2 sequence (O14764 17-452 partner limits assumed): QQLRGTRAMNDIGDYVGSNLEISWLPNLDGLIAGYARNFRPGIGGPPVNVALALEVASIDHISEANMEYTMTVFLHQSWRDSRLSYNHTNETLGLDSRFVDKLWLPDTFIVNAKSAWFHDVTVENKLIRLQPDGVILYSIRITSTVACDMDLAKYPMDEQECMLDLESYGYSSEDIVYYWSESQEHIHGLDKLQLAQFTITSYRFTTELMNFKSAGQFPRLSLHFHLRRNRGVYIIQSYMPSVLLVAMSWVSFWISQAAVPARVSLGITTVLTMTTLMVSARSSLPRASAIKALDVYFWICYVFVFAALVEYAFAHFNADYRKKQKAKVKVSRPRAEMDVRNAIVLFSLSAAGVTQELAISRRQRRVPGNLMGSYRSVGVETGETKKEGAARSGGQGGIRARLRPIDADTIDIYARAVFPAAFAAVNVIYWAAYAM

On to `CC(=O)[C@H]1CC[C@H]2[C@@H]3CC[C@@H]4C[C@](C)(O)CC[C@]4(COC(C)C)[C@H]3CC[C@]12C` [Compound 5], for which the Emax at 10 µM in assay [1] and in assay [3] was > 500% throughout. The IC50 in assay [2] was < 10 nM.
